From patent publication US7763647B2, “Topical solution containing a chromane or chromene derivative” (Laboratories Expanscience, priority 2001, dated 2010)

Legend:
[1] = Tests of solubility of genistein in polyethylene glycols or their ethoxylated homologs (HPLC assay); conditions: for Genistein assayed (% by weight in the solution): room temperature, stirred 30 minutes
Procedure: Tests of Solubility of Genistein in Polyethylene Glycols or Their Ethoxylated Homologs Procedure:
The quantity of genistein used in powdered form is accurately weighed in a 250 ml beaker. A precise quantity of excipient is then added. The mixture is then vigorously stirred (mechanical stirring) at room temperature for 30 minutes. The product is then directly assayed according to the protocol described below.
The assay of genistein is carried out by reverse phase high-performance liquid chromatography (C18 stationary phase—acetic acid/acetonitrile mobile phase) and detection by UV spectrophotometry (absorption maximum of the compound).

[2] = test system: actinic erythema induced by UVA+B irradiation; assay: Reduction of actinic erythema induced by UVA+B irradiation, double blind test with placebo, visual reading; type: in vivo, healthy volunteers; conditions: when solubilized beforehand in PEG 300
Procedure: The placebo (P1) and the active products (P2), (P3) and (P4) were thus used to carry out this test.
Several steps were followed: • Preliminary step: Evaluation of the individual Minimum Erythemal Dose (MEDi). • First step: Application of products P1 to P4 to a 35 cm^2 surface. The quantity applied is exactly 4 mg/cm^2. The zones for applying the products are modified by rotation from one volunteer to another. • Second step: Irradiation of the treated zones and of one untreated zone (control zone) fifteen minutes after application of the products, by positioning the MEDi at the third hole. • Third steps: Visual readings of the erythema 6 and 24 hours after the irradiation. a.) Choice of the Subjects […]
Beforehand, with the same apparatus, the individual MED of each subject was determined on the top of the back. […]
The irradiation times for the treated zones and for the untreated zone are determined so as to place the MEDi at the third hole.
The administered UV doses are calculated with the aid of a calibrated ROBERTSON-BERGER dosimeter equipped with a UVB reading head. The results are expressed directly as values read on the dosimeter and expressed as MED (1 MED=25 mJ/cm^2). […]
A numerical quantification corresponding to the degree of erythema is performed according to the following table: […]

[3] = excipient PEG 200, genistein used 12.0% by weight
[4] = excipient PEG 300, genistein used 8.0% by weight
[5] = excipient PEG 300, genistein used 10.0% by weight
[6] = excipient PEG 300, genistein used 12.0% by weight
[7] = excipient PEG 400, genistein used 12.0% by weight
[8] = excipient PEG 600, genistein used 12.0% by weight

Genistein assayed (% by weight in the solution) ([1]; excipient Laureth 11 (oxyethylenated C12 alcohol), genistein used 12.0% by weight): 9.5 % by weight in the solution | Solubility ([1]; excipient Laureth 11, genistein used 12.0% by weight): high | Genistein assayed (% by weight in the solution) ([1]; excipient Liponic EG1 (ethoxylated glycerol), genistein used 10.0% by weight): 9.1 % by weight in the solution | Solubility ([1]; excipient Liponic EG1, genistein used 10.0% by weight): high | Solubility [1, 3]: high | Genistein assayed (% by weight in the solution) [1, 3]: 10.9 % by weight in the solution | Solubility [1, 4]: high | Genistein assayed (% by weight in the solution) [1, 4]: 7.6 % by weight in the solution | Solubility [1, 5]: high | Genistein assayed (% by weight in the solution) [1, 5]: 9.3 % by weight in the solution | Solubility [1, 6]: high | Genistein assayed (% by weight in the solution) [1, 6]: 11.2 % by weight in the solution | Solubility [1, 7]: high | Genistein assayed (% by weight in the solution) [1, 7]: 10.1 % by weight in the solution | Genistein assayed (% by weight in the solution) ([1]; excipient PEG400 dilaurate (fatty diester of PEG), genistein used 12.0% by weight): 9.5 % by weight in the solution | Solubility ([1]; excipient PEG400 dilaurate, genistein used 12.0% by weight): high | Solubility [1, 8]: high | Genistein assayed (% by weight in the solution) [1, 8]: 10.7 % by weight in the solution
SMILES: O=c1c(-c2ccc(O)cc2)coc2cc(O)cc(O)c12 [Genistein]
Concentration at which genistein can be incorporated, in soluble form, into PEG 300 ([1]; PEG 300): ~12 % by weight relative to the total weight of the solution | Antierythemal activity of genistein [2]: increased
